What was measured:
[1] = tested on: grape powdery mildew; experiment: Field experiment against grape powdery mildew; format: in vivo, grapevine; settings: for PDI on Bunches 11 DAIIS / % Disease Control (11 DAIIS): 11 days after 2nd spray; for % Disease Control (11 DAIIS) / % Disease Control (15 DAIIS): over untreated check; for PDI on Bunches 15 DAIIS / % Disease Control (15 DAIIS): 15 days after 2nd spray
Protocol: A field experiment was conducted on pruned grapevine, in a randomized block design with ten treatments (Table No 1) and three replications. Two sprays were given at an interval of 10 days. The plot size was eight vines per treatment/replication. The spraying was done by Knapsack sprayer using 850 L spray volume/hectare. […] Based on the observations percent incidence was worked out.

[2] = tested on: grape downy mildew; experiment: Field experiment against grape downy mildew; format: in vivo, grapevine
Protocol: A field experiment was conducted on pruned grapevine, in a randomized block design with ten treatments (Table No. 3) and three replications. Two sprays were given at an interval of 6 days starting at 28 days after pruning. The plot size was ten vines per treatment/replication. The spraying was done by Knapsack sprayer using 1000 L spray volume/hectare. […] Based on the observations, percent disease incidence was worked out. The data was subjected to statistical analysis.

[3] = tested on: Rhizoctonia solani; experiment: Growth inhibition plate assay, R. solani; format: cell-based; settings: ND = Not Detectable, read-out: Plate assay inhibition, P1 R. solani
[4] = tested on: Colletotrichum capsici; experiment: Growth inhibition plate assay, C. capsici; format: cell-based; settings: ND = Not Detectable; for inhibition at 25 ppm: Colletotrichum truncatum, read-out: Plate assay inhibition, P2 C. capsici
[5] = tested on: Drechslera oryzae; experiment: Growth inhibition plate assay, D. oryzae; format: cell-based; settings: ND = Not Detectable; for inhibition at 25 ppm: Bipolaris oryzae, read-out: Plate assay inhibition, P3 D. oryzae, 25 ppm
[6] = tested on: Fusarium oxysporum; experiment: Growth inhibition plate assay, F. oxysporum; format: cell-based; settings: ND = Not Detectable; for inhibition at 25 ppm: Fusarium oxysporum, read-out: Plate assay inhibition, P4 F. oxysporum
[7] = tested on: Pyrricularia oryzae; experiment: microbe, parasite or virus in culture; format: cell-based; settings: ND = Not Detectable; for inhibition at 25 ppm: Pyricularia oryzae, read-out: Plate assay inhibition, P5 P. oryzae, 25 ppm
[8] = tested on: Pythium aphanidermatum; experiment: Growth inhibition plate assay, P. aphanidermatum; format: cell-based; settings: ND = Not Detectable, read-out: Plate assay inhibition, P6 P. aphanidermatum
[9] = tested on: plant pathogenic fungi (all the test pathogens); format: cell-based; settings: for fungicidal activity against plant pathogenic fungi: result in words
[10] = tested on: rose powdery mildew; experiment: Field experiment against rose powdery mildew; format: in vivo; settings: 4 days after spray; for Rose PM % Control: over untreated check
Source text: Two sprays were given at an interval of 4 days. The spraying was done by Foot operated sprayer using 1200 L spray volume/hectare. […] Based on the observations percent incidence was worked out. The data was subjected to statistical analysis.

[11] = tested on: Magnaporthe grisea; format: cell-based
[12] = 20% EC @ 400 g a.i./ha, 7 days after 2nd spray
[13] = 20% EC @ 400 g a.i./ha, 7 days after 2nd spray, over untreated check
[14] = 20% EC @ 400 g a.i./ha, 10 days after 2nd spray
[15] = 20% EC @ 400 g a.i./ha, 10 days after 2nd spray, over untreated check
[16] = 20% EC @ 800 g a.i./ha, 7 days after 2nd spray
[17] = 20% EC @ 800 g a.i./ha, 7 days after 2nd spray, over untreated check
[18] = 20% EC @ 800 g a.i./ha, 10 days after 2nd spray
[19] = 20% EC @ 800 g a.i./ha, 10 days after 2nd spray, over untreated check

Compound: CO/C=C(/C(=O)OC)c1ccccc1Oc1cc(Oc2ccccc2C#N)ncn1 [Azoxystrobin, reference compound]
- PDI on Bunches 11 DAIIS ([1]; 25 SC @ 212 g a.i./ha): 8.68%
- % Disease Control (11 DAIIS) ([1]; 25 SC @ 212 g a.i./ha): 70.97%
- PDI on Bunches 15 DAIIS ([1]; 25 SC @ 212 g a.i./ha): 5.92%
- % Disease Control (15 DAIIS) ([1]; 25 SC @ 212 g a.i./ha): 77.34%
- Grape Downy mildew incidence 7 DAIIS ([2]; 23 SC @ 230 g a.i./ha, 7 days after 2nd spray): 3.32%
- % Control (7 DAIIS) ([2]; 23 SC @ 230 g a.i./ha, 7 days after 2nd spray, over untreated check): 80.29%
- Grape Downy mildew incidence 10 DAIIS ([2]; 23 SC @ 230 g a.i./ha, 10 days after 2nd spray): 2.7%
- % Control (10 DAIIS) ([2]; 23 SC @ 230 g a.i./ha, 10 days after 2nd spray, over untreated check): 88.14%

Compound: Clc1cc(Br)ccc1OCC1COC2(CCN(CCc3ccccc3)CC2)O1 (stereo not drawn) [Compound 2, 2-(4-bromo-2-chlorophenoxy)methyl-8-phenethyl-1,4-dioxa-8-azaspiro[4,5]decane]
- inhibition at 25 ppm [3]: 90 to 100%
- inhibition at 25 ppm [4]: 90 to 100%
- inhibition at 25 ppm [5]: 90 to 100%
- inhibition at 25 ppm [6]: 90 to 100%
- inhibition at 25 ppm [7]: 90 to 100%
- inhibition at 25 ppm [8]: 90 to 100%
- inhibition against all the test pathogens [9]: 90-100%
- fungicidal activity against plant pathogenic fungi [9]: active against all pathogens
- PDI on Bunches 11 DAIIS ([1]; 20% EC @ 340 g a.i./ha): 12.96%
- % Disease Control (11 DAIIS) ([1]; 20% EC @ 340 g a.i./ha): 56.67%
- PDI on Bunches 15 DAIIS ([1]; 20% EC @ 340 g a.i./ha): 10.23%
- % Disease Control (15 DAIIS) ([1]; 20% EC @ 340 g a.i./ha): 60.84%
- PDI on Bunches 11 DAIIS ([1]; 20% EC @ 510 g a.i./ha): 13.6%
- % Disease Control (11 DAIIS) ([1]; 20% EC @ 510 g a.i./ha): 54.53%
- PDI on Bunches 15 DAIIS ([1]; 20% EC @ 510 g a.i./ha): 9.6%
- % Disease Control (15 DAIIS) ([1]; 20% EC @ 510 g a.i./ha): 63.26%
- PDI on Bunches 11 DAIIS ([1]; 20% EC @ 680 g a.i./ha): 12.48%
- % Disease Control (11 DAIIS) ([1]; 20% EC @ 680 g a.i./ha): 58.27%
- PDI on Bunches 15 DAIIS ([1]; 20% EC @ 680 g a.i./ha): 8.9%
- % Disease Control (15 DAIIS) ([1]; 20% EC @ 680 g a.i./ha): 65.93%
- Grape Downy mildew incidence 7 DAIIS [2, 12]: comparable with standard check fungicides
- Grape Downy mildew incidence 7 DAIIS ([2]; 20% EC @ 400 g a.i./ha, 7 days after 2nd spray, listed as Cpd 2): 4.46%
- % Control (7 DAIIS) [2, 13]: 73.53%
- Grape Downy mildew incidence 10 DAIIS [2, 14]: 7.58%
- % Control (10 DAIIS) [2, 15]: 66.72%
- Grape Downy mildew incidence 7 DAIIS [2, 16]: comparable with standard check fungicides
- Grape Downy mildew incidence 7 DAIIS ([2]; 20% EC @ 800 g a.i./ha, 7 days after 2nd spray, listed as Cpd 2): 2.77%
- % Control (7 DAIIS) [2, 17]: 83.56%
- Grape Downy mildew incidence 10 DAIIS [2, 18]: at par with standard check fungicides
- Grape Downy mildew incidence 10 DAIIS ([2]; 20% EC @ 800 g a.i./ha, 10 days after 2nd spray, listed as Cpd 2): 5.27%
- % Control (10 DAIIS) [2, 19]: 76.86%
- Rose PM % incidence 4 DAS ([10]; 20% EC @ 720 g a.i./ha): 36.83%
- Rose PM % Control ([10]; 20% EC @ 720 g a.i./ha): 28.52%

Compound: c1ccc(CCN2CCC3(CC2)OCC(CN2CCOCC2)O3)cc1 (stereo not drawn) [Compound 3, 2-(morpholin-4-yl)methyl-8-phenethyl-1,4-dioxa-8-azaspiro[4,5]decane]
- inhibition at 25 ppm [3]: 70 to 80%
- inhibition at 25 ppm [5]: 60 to 70%
- inhibition at 25 ppm [6]: 70 to 80%
- inhibition at 25 ppm [7]: 40 to 50%

Compound: Clc1ncc(COCC2COC3(CCN(CCc4ccccc4)CC3)O2)s1 (stereo not drawn) [Compound 4, 2-(2-chloro-5-thiazolyl)methoxymethyl-8-phenethyl-1,4-dioxa-8-azaspiro[4,5]decane]
- inhibition at 25 ppm [3]: 20 to 30%
- inhibition at 25 ppm [4]: 20 to 30%
- inhibition at 25 ppm [6]: 30 to 40%
- inhibition at 25 ppm [7]: 30 to 40%
- inhibition against all the test pathogens [9]: 20-30%

Compound: c1ccc(CCN2CCC3(CC2)OCC(COCc2ccccc2)O3)cc1 (stereo not drawn) [Compound 5, 2-benzyloxymethyl-8-phenethyl-1,4-dioxa-8-azaspiro[4,5]decane]
- inhibition at 25 ppm [3]: 40 to 50%
- inhibition at 25 ppm [5]: 60 to 70%
- inhibition at 25 ppm [6]: 40 to 50%
- inhibition against M. grisea [11]: 60-70%

Compound: c1ccc(CCN2CCC3(CC2)OCC(CSc2ccccc2)O3)cc1 (stereo not drawn) [Compound 6, 8-phenethyl-2-phenylsulphanylmethyl-1,4-dioxa-8-azaspiro[4,5]decane]
- inhibition at 25 ppm [3]: 90 to 100%
- Plate assay inhibition, P2 C. capsici ([4]; 25 ppm, listed as C6): 60-70%
- inhibition at 25 ppm [4]: 60 to 90%
- Plate assay inhibition, P3 D. oryzae ([5]; 25 ppm, listed as C6): 70-80%
- inhibition at 25 ppm [5]: 60 to 90%
- Plate assay inhibition, P4 F. oxysporum ([6]; 25 ppm, listed as C6): 70-80%
- inhibition at 25 ppm [6]: 60 to 90%
- Plate assay inhibition, P5 P. oryzae ([7]; 25 ppm, listed as C6): 80-90%
- inhibition at 25 ppm [7]: 60 to 90%
- inhibition at 25 ppm [8]: 50 to 60%
- fungicidal activity against plant pathogenic fungi [9]: active against all pathogens
- PDI on Bunches 11 DAIIS ([1]; 20% EC @ 340 g a.i./ha): 11.89%
- % Disease Control (11 DAIIS) ([1]; 20% EC @ 340 g a.i./ha): 60.24%
- PDI on Bunches 15 DAIIS ([1]; 20% EC @ 340 g a.i./ha): 10.6%
- % Disease Control (15 DAIIS) ([1]; 20% EC @ 340 g a.i./ha): 59.43%
- % Disease Control (11 DAIIS) ([1]; 20% EC @ 510 g a.i./ha): 66.26%
- PDI on Bunches 15 DAIIS ([1]; 20% EC @ 510 g a.i./ha): 9.1%
- % Disease Control (15 DAIIS) ([1]; 20% EC @ 510 g a.i./ha): 65.17%
- % Disease Control (11 DAIIS) ([1]; 20% EC @ 680 g a.i./ha): 69.6%
- % Disease Control (15 DAIIS) ([1]; 20% EC @ 680 g a.i./ha): 70.72%
- Grape Downy mildew incidence 7 DAIIS [2, 12]: 16.14%
- % Control (7 DAIIS) [2, 13]: 4.21%
- Grape Downy mildew incidence 10 DAIIS [2, 14]: 24.88%
- % Control (10 DAIIS) [2, 15]: 0%
- Grape Downy mildew incidence 7 DAIIS [2, 16]: 16.91%
- % Control (7 DAIIS) [2, 17]: 0%
- Grape Downy mildew incidence 10 DAIIS [2, 18]: 17.7%
- % Control (10 DAIIS) [2, 19]: 22.3%
- Rose PM % incidence 4 DAS ([10]; 20% EC @ 240 g a.i./ha): 38.42%
- Rose PM % Control ([10]; 20% EC @ 240 g a.i./ha): 25.44%
- Rose PM % incidence 4 DAS ([10]; 20% EC @ 480 g a.i./ha): 29.45%
- Rose PM % Control ([10]; 20% EC @ 480 g a.i./ha): 42.84%
- Rose PM % incidence 4 DAS ([10]; 20% EC @ 720 g a.i./ha): 23.21%
- Rose PM % Control ([10]; 20% EC @ 720 g a.i./ha): 54.95%

Compound: Fc1ccc(Cl)cc1NCC1COC2(CCN(Cc3cnc(Cl)s3)CC2)O1 (stereo not drawn) [Compound 8, N-(5-chloro-2-fluorophenyl)-N-{8-(2-chloro-5-thiazolyl)methyl-1,4-dioxa-8-aza-spiro[4,5]dec-2-yl}methanamine]
- inhibition at 25 ppm [6]: 20 to 30%
- inhibition at 25 ppm [8]: 50 to 60%

Compound: COc1ccc(C(=CC(=O)N2CCOCC2)c2ccc(Cl)cc2)cc1OC [Dimethomorph, reference compound]
- Grape Downy mildew incidence 7 DAIIS ([2]; 50 WP @ 500 g a.i./ha, 7 days after 2nd spray): 2.39%
- Grape Downy mildew incidence 10 DAIIS ([2]; 50 WP @ 500 g a.i./ha, 10 days after 2nd spray): 2.42%
- % Control (7 DAIIS) ([2]; 500 g/ha, 168 h): 85.81%
- % Control (10 DAIIS) ([2]; 500 g/ha, 240 h): 89.37%

Compound: CCCCC(O)(Cn1cncn1)c1ccc(Cl)cc1Cl (stereo not drawn) [Hexaconazole, reference compound]
- PDI on Bunches 11 DAIIS ([1]; 5 E @ 42.50 g a.i./ha): 8.59%
- % Disease Control (11 DAIIS) ([1]; 5 E @ 42.50 g a.i./ha): 71.28%
- PDI on Bunches 15 DAIIS ([1]; 5 E @ 42.50 g a.i./ha): 4.81%
- % Disease Control (15 DAIIS) ([1]; 5 E @ 42.50 g a.i./ha): 81.59%

Compound: CO/N=C(/C(=O)OC)c1ccccc1COc1ccccc1C [Kresoxim methyl, reference compound]
- PDI on Bunches 11 DAIIS ([1]; 50 SC 425 g a.i./ha): 5.5%
- % Disease Control (11 DAIIS) ([1]; 50 SC 425 g a.i./ha): 81.61%
- PDI on Bunches 15 DAIIS ([1]; 50 SC 425 g a.i./ha): 3.55%
- % Disease Control (15 DAIIS) ([1]; 50 SC 425 g a.i./ha): 86.41%

Reference: US8841296B2, “Substituted 1, 4-dioxa-8-azaspiro[4,5]decanes useful as fungicides and a process for the preparation thereof” (Council of Scientific and Industrial Research, Anusandhan …, priority 2009, dated 2014)
